According to patent US20160128944A1, “COATED PARTICLES AND COMPOSITIONS COMPRISING SAME” (VYOME BIOSCIENCES PVT. LTD., priority 2013, published 2016):
Like-named read-outs stand apart in the source and are kept apart here.

Tested on: M. furfur
Text: The time-kill assays are used to evaluate efficacy of antimicrobial agents, either singly or in combination, and the results can help in establishing the dose and/or time of application of the active. The time-kill assays can be used to study both concentration-dependent and time-dependent antimicrobial action.
Method: M. furfur cells were suspended in Sabouraud Dextrose Broth (SDB) at inoculum concentration of 7×10^7 cells/ml. Cells were taken from a freshly growing (3-7 days old) plate and cell suspension is vortexed to remove the cell clumps as much as possible. Sterile media were supplemented with chloramphenicol (0.25 mg/ml), cycloheximide (0.04 mg/ml) and olive oil (2%). The media were then supplemented with appropriate concentrations (two-fold serial dilutions using SDB) of zinc pyrithione powder (10 μg/ml and 50 μg/ml) with different concentrations of Capmul 908-P […]. The cultures were incubated on a tube rotator at 34° C. in CO2 incubator.
To measure the colony forming units (CFU), at different time points, aliquots (50 μl) of Malassezia cultures were serially diluted with SDBT medium (SDB containing 0.1% Triton X-100) and plated on SDA plates. The plates were incubated at 34° C. in CO2 incubator for 3 days. The viable colonies were counted and converted to CFU/ml.

zinc pyrithione [ZPT]
Log CFU Count of M. furfur (ZPT 10 μg/ml, Capmul 908-P 30 μg/ml, 6 hrs): 6.50 Log CFU
Log CFU Count of M. furfur (ZPT 10 μg/ml, Capmul 908-P 30 μg/ml, 24 hrs): 5.94 Log CFU
Log CFU Count of M. furfur (ZPT 10 μg/ml, Capmul 908-P 30 μg/ml, 48 hrs): 5.06 Log CFU
Log CFU Count of M. furfur (ZPT 10 μg/ml, Capmul 908-P 50 μg/ml, 6 hrs): 6.37 Log CFU
Log CFU Count of M. furfur (ZPT 10 μg/ml, Capmul 908-P 50 μg/ml, 24 hrs): 5.57 Log CFU
Log CFU Count of M. furfur (ZPT 10 μg/ml, Capmul 908-P 50 μg/ml, 48 hrs): 4.80 Log CFU
Log CFU Count of M. furfur (ZPT 10 μg/ml, Capmul 908-P 90 μg/ml, 6 hrs): 6.33 Log CFU
Log CFU Count of M. furfur (ZPT 10 μg/ml, Capmul 908-P 90 μg/ml, 24 hrs): 5.55 Log CFU
Log CFU Count of M. furfur (ZPT 10 μg/ml, Capmul 908-P 90 μg/ml, 48 hrs): 4.77 Log CFU
Log CFU Count of M. furfur (ZPT 10 μg/ml, Capmul 908-P nil, 6 hrs): 6.56 Log CFU
Log CFU Count of M. furfur (ZPT 10 μg/ml, Capmul 908-P nil, 24 hrs): 6.13 Log CFU
Log CFU Count of M. furfur (ZPT 10 μg/ml, Capmul 908-P nil, 48 hrs): 5.27 Log CFU
Log CFU Count of M. furfur (ZPT 50 μg/ml, Capmul 908-P 30 μg/ml, 6 h): 6.06 Log CFU
Log CFU Count of M. furfur (ZPT 50 μg/ml, Capmul 908-P 30 μg/ml, 24 h): 4.69 Log CFU
Log CFU Count of M. furfur (ZPT 50 μg/ml, Capmul 908-P 30 μg/ml, 48 h): 3.25 Log CFU
Log CFU Count of M. furfur (ZPT 50 μg/ml, Capmul 908-P 50 μg/ml, 6 h): 5.94 Log CFU
Log CFU Count of M. furfur (ZPT 50 μg/ml, Capmul 908-P 50 μg/ml, 24 h): 4.62 Log CFU
Log CFU Count of M. furfur (ZPT 50 μg/ml, Capmul 908-P 50 μg/ml, 48 h): 3.04 Log CFU
Log CFU Count of M. furfur (ZPT 50 μg/ml, Capmul 908-P 90 μg/ml, 6 h): 5.52 Log CFU
Log CFU Count of M. furfur (ZPT 50 μg/ml, Capmul 908-P 90 μg/ml, 24 h): 3.63 Log CFU
Log CFU Count of M. furfur (ZPT 50 μg/ml, Capmul 908-P 90 μg/ml, 48 h): 2.08 Log CFU
Log CFU Count of M. furfur (ZPT 50 μg/ml, Capmul 908-P nil, 6 h): 6.43 Log CFU
Log CFU Count of M. furfur (ZPT 50 μg/ml, Capmul 908-P nil, 24 h): 5.39 Log CFU
Log CFU Count of M. furfur (ZPT 50 μg/ml, Capmul 908-P nil, 48 h): 3.92 Log CFU
anti-microbial activity towards M. furfur in combination with propylene glycol monocaprylate (time-kill, ZPT 10 and 50 μg/ml with Capmul 908-P): potentiated with increasing concentration of propylene glycol monocaprylate
